Source: ChEMBL document CHEMBL3885881, “DrugMatrix”

Species on record: Rattus norvegicus
Experiment: DrugMatrix - Regimen: Daily Repeat
Assay type: toxicity, organism-based, Sprague-Dawley
Design: regimen Daily Repeat, gender Male, age 6-8 weeks
Details: in vivo, po, route oral GAVAGE, vehicle 100 % WATER
[1] = 0 mg/kg, 72 h, tissue Blood, dose level Control, time 3 day
[2] = 0 mg/kg, 72 h, tissue Plasma, dose level Control, time 3 day
[3] = 0 mg/kg, 120 h, tissue Blood, dose level Control, time 5 day
[4] = 0 mg/kg, 120 h, tissue Plasma, dose level Control, time 5 day
[5] = 1 mg/kg, 72 h, tissue Blood, dose level Low, time 3 day
[6] = 1 mg/kg, 72 h, tissue Plasma, dose level Low, time 3 day

Sequence: THIMEROSAL
- ABSOLUTE BASOPHIL [1]: 0 CELLS/uL
- ABSOLUTE EOSINOPHIL [1]: 123.17 CELLS/uL
- ABSOLUTE MONOCYTE [1]: 66.17 CELLS/uL
- ABSOLUTE SEGMENTED NEUTROPHIL [1]: 1149.5 CELLS/uL
- BASOPHIL [1]: 0%
- EOSINOPHIL [1]: 0.83%
- ERYTHROCYTE COUNT [1]: 5.26 x10E6/uL
- HEMATOCRIT [1]: 33.07%
- LEUKOCYTE COUNT [1]: 14.02 x10E3/uL
- LYMPHOCYTE [1]: 90.17%
- MEAN CORPUSCULAR HEMOGLOBIN [1]: 25.62 pg
- MEAN CORPUSCULAR HEMOGLOBIN CONCENTRATION [1]: 40.65 G/DL
- MEAN CORPUSCULAR VOLUME [1]: 63 fL
- MONOCYTE [1]: 0.5%
- NEUTROPHIL [1]: 8.5%
- NUCLEATED RED BLOOD CELLS [1]: 0.17 /100WBC
- PLATELET COUNT [1]: 1142.83 x10E3/uL
- ALANINE AMINOTRANSFERASE [2]: 45.17 u/L
- ALKALINE PHOSPHATASE [2]: 340.17 u/L
- ASPARTATE AMINOTRANSFERASE [2]: 77.33 u/L
- BLOOD UREA NITROGEN [2]: 14.67 mg/dL
- CREATINE PHOSPHOKINASE [2]: 263.67 u/L
- CREATININE [2]: 0.15 mg/dL
- LACTATE DEHYDROGENASE [2]: 230 u/L
- PHOSPHORUS [2]: 11.8 mg/dL
- POTASSIUM [2]: 5.91 MEQ/L
- TOTAL BILIRUBIN [2]: 0.22 mg/dL
- TOTAL PROTEIN [2]: 5.7 G/DL
- URIC ACID [2]: 1.35 mg/dL
- ABSOLUTE BASOPHIL [3]: 0 CELLS/uL
- ABSOLUTE EOSINOPHIL [3]: 125 CELLS/uL
- ABSOLUTE LYMPHOCYTE [3]: 13809 CELLS/uL
- ABSOLUTE MONOCYTE [3]: 351 CELLS/uL
- ABSOLUTE SEGMENTED NEUTROPHIL [3]: 1581.67 CELLS/uL
- BASOPHIL [3]: 0%
- EOSINOPHIL [3]: 0.67%
- ERYTHROCYTE COUNT [3]: 5.53 x10E6/uL
- HEMATOCRIT [3]: 34.83%
- LEUKOCYTE COUNT [3]: 15.87 x10E3/uL
- LYMPHOCYTE [3]: 87.5%
- MEAN CORPUSCULAR HEMOGLOBIN [3]: 25.25 pg
- MEAN CORPUSCULAR HEMOGLOBIN CONCENTRATION [3]: 40.08 G/DL
- MEAN CORPUSCULAR VOLUME [3]: 63.05 fL
- MONOCYTE [3]: 2.17%
- NEUTROPHIL [3]: 9.67%
- NUCLEATED RED BLOOD CELLS [3]: 0 /100WBC
- PLATELET COUNT [3]: 1044 x10E3/uL
- ALANINE AMINOTRANSFERASE [4]: 50.67 u/L
- ALKALINE PHOSPHATASE [4]: 395 u/L
- ASPARTATE AMINOTRANSFERASE [4]: 86 u/L
- CARBON DIOXIDE [4]: 29.33 mmol/L
- CHOLESTEROL [4]: 71.33 mg/dL
- CREATINE PHOSPHOKINASE [4]: 323.17 u/L
- CREATININE [4]: 0.18 mg/dL
- LACTATE DEHYDROGENASE [4]: 389.5 u/L
- LIPASE [4]: 9.83 u/L
- PHOSPHORUS [4]: 11.35 mg/dL
- POTASSIUM [4]: 6.39 MEQ/L
- TOTAL BILIRUBIN [4]: 0.18 mg/dL
- TOTAL PROTEIN [4]: 6.1 G/DL
- URIC ACID [4]: 1.52 mg/dL
- ABSOLUTE BASOPHIL [5]: 0 CELLS/uL
- ABSOLUTE EOSINOPHIL [5]: 68 CELLS/uL
- ABSOLUTE LYMPHOCYTE [5]: 13921 CELLS/uL
- ABSOLUTE MONOCYTE [5]: 100.67 CELLS/uL
- ABSOLUTE SEGMENTED NEUTROPHIL [5]: 710.33 CELLS/uL
- BASOPHIL [5]: 0%
- EOSINOPHIL [5]: 0.33%
- ERYTHROCYTE COUNT [5]: 5.23 x10E6/uL
- HEMATOCRIT [5]: 33.4%
- HEMOGLOBIN [5]: 13.6 G/DL
- LEUKOCYTE COUNT [5]: 14.8 x10E3/uL
- LYMPHOCYTE [5]: 94.33%
- MEAN CORPUSCULAR HEMOGLOBIN [5]: 26.03 pg
- MEAN CORPUSCULAR HEMOGLOBIN CONCENTRATION [5]: 40.73 G/DL
- MEAN CORPUSCULAR VOLUME [5]: 63.97 fL
- MONOCYTE [5]: 0.67%
- NEUTROPHIL [5]: 4.67%
- NUCLEATED RED BLOOD CELLS [5]: 0 /100WBC
- PLATELET COUNT [5]: 1138.67 x10E3/uL
- ALANINE AMINOTRANSFERASE [6]: 49 u/L
- ALKALINE PHOSPHATASE [6]: 344.33 u/L
- ASPARTATE AMINOTRANSFERASE [6]: 77 u/L
- BLOOD UREA NITROGEN [6]: 12.33 mg/dL
- CHLORIDE [6]: 100 MEQ/L
- CHOLESTEROL [6]: 82.33 mg/dL
- CREATINE PHOSPHOKINASE [6]: 236.33 u/L
- CREATININE [6]: 0.13 mg/dL
- GLUCOSE [6]: 155 mg/dL
- LACTATE DEHYDROGENASE [6]: 196.33 u/L
- PHOSPHORUS [6]: 11.57 mg/dL
- POTASSIUM [6]: 6.96 MEQ/L
